Results published in US9618507B2, “Methods of treating rheumatoid arthritis” (Betanien Hospital, priority 2014, dated 2017).
Where two headings read alike, the source gives them in different places. Marks after values point to notes of the source that are not given here. Where a SMILES comes first, the peptide text is derived from it. [ ]: non-standard residue; d: D form. dPhe(4-Cl) = N[C@H](Cc1ccc(Cl)cc1)C(=O)O; d2Nal = N[C@H](Cc1ccc2ccccc2c1)C(=O)O; dCit = NC(=O)NCCC[C@@H](N)C(=O)O; d3Pal = N[C@H](Cc1cccnc1)C(=O)O

Key:
[1] = tested on: RA patients; assay: Example 1: adverse events; type: in vivo, human
Description: (§1) Ethical committee approval was obtained. […] Safety and efficacy visits, with blood sampling, were between 0730 and 0930 h on days 1 (baseline), 2, 3, 4, 5 (visit 5a), 10, and 15. There was an additional visit (visit 5b) between 1930 and 2130 h when maximum GnRH suppression was anticipated.
Predefined secondary end-points included the baseline adjusted between-group difference inTNF-α, ACR20/50/70 responses, European League Against Rheumatism (EULAR) responses, DAS28-CRP <2.6 and ≦3.2, and adverse events.
The Newcombe hybrid score interval was used to estimate 95% confidence intervals (CI) for the difference between proportions (Fagerland M W, et al., Stat Methods Med Res 2011). No adjustments for multiple analyses were made, owing to the highly correlated variables. All clinical, biochemical, and safety data were analyzed by an intention-to-treat analysis. Only predefined endpoints are presented. The intention-to-treat population was predefined in the protocol as all randomized patients who received any injections of study drug. Missing values were <1% and could, as predefined, be imputed with the last observation carried forward. The assumptions of normality needed for analyses were approximately valid. The Spearman rank correlation coefficient (Spearman's rho) was used to estimate the association between pairs of continuous variables.

[2] = tested on: myeloma cells; conditions: Wen J, et al., Mol Cancer Ther 2011; cited from earlier work
[3] = tested on: gonadotropins, oestradiol, testosterone, cortisol; assay: Example 2: hormones (gonadotropins, oestradiol, testosterone, cortisol) in high gonadotropin patients; type: in vivo, human
Excerpt: Non-competitive immunofluorometric assays were used for the quantitative determination of serum LH and FSH (Dissociation Enhanced Lanthanide Fluoroimmunoassay [DELFIA] kit, Turku, Finland). A competitive immunofluorometric assay was used for the determination of serum oestradiol (DELFIA kit, Turku, Finland). A competitive radioimmunoassay was used for the quantitative determination of serum testosterone (Orion Diagnostica. Espoo, Finland). A competitive Iuminoimmunoassay was used for the quantitative determination of serum cortisol (Immulite 2000, California, USA).

[4] = tested on: interleukin-1β; assay: Example 2: serum cytokine, multiplex high-sensitivity assay, interleukin-1β; type: in vivo, human; conditions: high gonadotropin patients
Description: The protocol-specified primary and secondary intention-to-treat endpoints of the original AGRA trial were analyzed in these post hoc analyses. The primary endpoint was the baseline-adjusted between-group difference in DAS28-CRP (Wells et al., supra) by day 5b. Secondary endpoints included the baseline-adjusted between-group difference in cytokines, proportions of patients achieving at least a 20%, 50%, and 70% improvement on the ACR scale (Felson D T, et al., Arthritis Rheum 1995; 38:727-35), categorical DAS28-CRP (European League Against […] [EULAR]) responses (Wells et al., supra; van Gestel A M, et al., Arthritis Rheum 1996; 39:34-40), DAS28-CRP≦3.2 (Wells et al., supra), DAS28-CRP<2.6 (Wells et al., supra), and the incidence of adverse events. Protocol-specified DAS28 outcomes were preferentially CRP-based rather than erythrocyte sedimentation rate (ESR)-based, as CRP usually changes before ESR. […] Multiplex technology (Luminex Inc., Austin, Tex.) measured these serum cytokines using high-sensitivity assays (sensitivities <0.5 pg/mL, allowing the detection of very low concentrations of cytokines) and identical lots of critical reagent of negligible cross-reactivity <2%, according to manufacturers' instructions (Bio-Rad, Hercules, Calif.). […] To enable intention-to-treat analyses with all patients N=53, non-detectable values were set at the lower limit of detection for cytokines, as is common for CRP values.
The original power calculation is previously reported (Kass A S, et al., Scand J Rheumatol Epub ahead of print 1 Nov. 2013). Baseline-adjusted between-group differences for all continuous endpoints were assessed with the use of analysis-of-covariance using outcome measurements at predefined time points as response variables, and treatment and baseline measurements as covariates. Dichotomous endpoints were compared with the Pearson chi-square test or Suissa-Shuster exact unconditional test, depending on expected-value distribution (Lydersen S, et al., Stat Med 2009; 28:1159-75). No adjustments for multiple analyses were made, owing to highly correlated endpoints. Due to skewed distributions, between-group changes of natural log-transformed cytokine levels from baseline were compared.

[5] = tested on: TNF-α; assay: Example 1: serum TNF-α, high sensitivity bead-based fluorescence immunoassay; type: in vivo, human; conditions: by day 5
Description: as §1
TNF-α was measured using a high sensitivity bead-based fluorescence immunoassay (Luminex Inc., Austin, Tex. USA) with multiplex technology according to the manufacturers' instructions. […] Samples were assayed together within the same microplate on the same day. The assay sensitivity for TNF-α was 0.5 pg/mL. Due to its skewed distribution, the statistical analysis gives both the log and relative change (%) of TNF-α from baseline.

[6] = tested on: CRP, ESR; conditions: all patients
Description: Ethical committee approval was obtained. A blinded independent committee, the Oslo University Hospital Data Monitoring Committee, regularly reviewed source documents against case record forms. Safety and efficacy visits, with blood sampling, were between 0730 and 0930 h on days 1 (baseline), 2, 3, 4, 5 (visit 5a), 10, and 15. There was an additional visit (visit 5b) between 1930 and 2130 h when maximum GnRH suppression was anticipated. Using computer-generated allocation, patients were randomly assigned 1:1 to cetrorelix (5 mg/day s.c. on days 1 and 2, 3 mg/day on days 3-5) or corresponding volumes of placebo. The cetrorelix doses were chosen to achieve rapid reductions in GnRH, LH, a surrogate marker for GnRH, and FSH. TNF-α was measured using multiplex technology with a high sensitivity (0.5 pg/mL) assay.
The predefined primary end-point was the baseline adjusted between-group difference in DAS28-CRP by visit 5b. Predefined secondary end-points included the baseline adjusted between-group difference inTNF-α, ACR20/50/70 responses, European League Against Rheumatism (EULAR) responses, DAS28-CRP <2.6 and ≦3.2, and adverse events. Continuous end-points were assessed with regression using day 5 as the response variable, and treatment and baseline measurement as covariates (ANCOVA). No adjustments for multiple analyses were made because of the highly correlated variables. Statistical tests were twosided (α ¼0.05) using Stat12/StatXact9, and performed by an offsite statistician who received the locked database from the blinded investigators, and the allocation key from the offsite central office.

Q: With `CC(=O)N[C@H](Cc1ccc2ccccc2c1)C(=O)N[C@H](Cc1ccc(Cl)cc1)C(=O)N[C@H](Cc1cccnc1)C(=O)N[C@@H](CO)C(=O)N[C@@H](Cc1ccc(O)cc1)C(=O)N[C@H](CCCNC(N)=O)C(=O)N[C@@H](CC(C)C)C(=O)N[C@@H](CCCNC(=N)N)C(=O)N1CCC[C@H]1C(=O)N[C@H](C)C(N)=O` [cetrorelix] (Ac-[d2Nal][dPhe(4-Cl)][d3Pal]SY[dCit]LRP[dA]-NH2) as the molecule, how does the “Adverse effects: Headache” value ([1]; N = 48) read?
A: Its value is 2 (4.2) n (percent).

Q: And the “Adverse effects: Hot flushes” value ([1]; N = 48)?
A: Its value is 2 (4.2) n (percent).

Q: What about the “Adverse effects: Injection site discomfort” value ([1]; N = 48) of the same molecule?
A: The value was 3 (6.3) n (percent).

Q: And the “Adverse effects: Menstrual spotting” value ([1]; N = 48)?
A: Its value is 2 (4.2) n (percent).

Q: And the “Adverse effects: Nasopharyngitis” value ([1]; N = 48)?
A: The value was 1 (2.1) n (percent).

Q: What about the “Adverse effects: Nausea” value ([1]; N = 48) of the same molecule?
A: Its value is 0 n (percent).

Q: What about the “Adverse effects: Toothache” value ([1]; N = 48) of the same molecule?
A: Its value is 0 n (percent).

Q: What about the “Adverse effects: Urinary tract infection” value ([1]; N = 48) of the same molecule?
A: Its value is 1 (2.1) n (percent).

Q: What about the serious side-effects ([1]; all patients) of the same molecule?
A: Its serious side-effects is “no serious side-effects were observed”.

Q: What about the “pro-inflammatory cytokine gene expression through GnRH receptors” value [2] of the same molecule?
A: Its value is “directly decrease”.

Q: And the “Cortisol change compared with placebo (words)” value [3]?
A: Its value is “significantly decreased”.

Q: What about the “gonadotropins change compared to placebo” value [3] of the same molecule?
A: The value was “significantly reduced”.

Q: What about the “oestradiol change compared to placebo” value [3] of the same molecule?
A: Its value is “significantly reduced”.

Q: And the “testosterone change compared to placebo” value [3]?
A: Its value is “significantly reduced”.

Q: What about the “gonadotropin levels, onset” value ([3]; by day 2) of the same molecule?
A: Its value is “decreased”.

Q: What about the Cortisol between-group difference ([3]; by day 5, 95% CI 10.5 to 95.8, P=0.016) of the same molecule?
A: Its Cortisol between-group difference is 53.1 nmol/L.

Q: What about the “Cortisol change compared with placebo (words)” value ([3]; listed as Cetrorelix) of the same molecule?
A: Its value is “significantly reduced”.

Q: What about the “IL-1β level, Final Day 15” value ([4]; N = 27, mean ± SD) of the same molecule?
A: Its value is −1.68 ± 1.4 log pg/mL.

Q: What about the “IL-1β Change from baseline by day 15” value ([4]; N = 27, placebo +0.10) of the same molecule?
A: The value was −0.20 log pg/mL.

Q: And the “Interleukin-1β change compared with placebo” value ([4]; by day 15, P=0.034)?
A: The value was “significantly decreased”.

Q: What about the “IL-1β Baseline-Adjusted Between-Group Difference” value ([4]; day 15, 95% CI (0.02, 0.59), P < 0.05) of the same molecule?
A: The value was 0.30‡ log pg/mL.

Q: What about the “TNF-α reduction (change from baseline)” value ([5]; all patients with detectable TNF-α, placebo −0.02) of the same molecule?
A: The value was −0.58 log pg/mL.

Q: And the “TNF-α between group difference vs placebo” value ([5]; 95% CI 0.08-1.01, p 0.023)?
A: Its value is 0.55 log pg/mL.

Q: And the “TNF-α percentage change from baseline” value ([5]; placebo 11.1%)?
A: Its value is −28.2%.

Q: And the “CRP levels after withdrawal of treatment” value ([6]; by day 15)?
A: Its value is “remained lowered”.

Q: What about the “CRP reduction compared to placebo” value ([6]; day 5, p 0.060) of the same molecule?
A: Its value is “Non-significant reductions”.

Q: What about the “ESR reduction compared to placebo” value ([6]; day 15, p 0.051) of the same molecule?
A: The value was “Non-significant reductions”.
